From ChEMBL document CHEMBL4402545, “Subtype Selective γ-Aminobutyric Acid Type A Receptor (GABAAR) Modulators Acting at the Benzodiazepine Binding Site: An Update” (J Med Chem, 2020)

What was measured:
[1] = molecular target: T1, Gamma-aminobutyric acid receptor subunit alpha-1 (Homo sapiens) (UniProt P14867); assay: Binding affinity to GABA-A alpha1 (unknown origin) assessed as increase in induced current relative to control
T1 sequence (whole entry): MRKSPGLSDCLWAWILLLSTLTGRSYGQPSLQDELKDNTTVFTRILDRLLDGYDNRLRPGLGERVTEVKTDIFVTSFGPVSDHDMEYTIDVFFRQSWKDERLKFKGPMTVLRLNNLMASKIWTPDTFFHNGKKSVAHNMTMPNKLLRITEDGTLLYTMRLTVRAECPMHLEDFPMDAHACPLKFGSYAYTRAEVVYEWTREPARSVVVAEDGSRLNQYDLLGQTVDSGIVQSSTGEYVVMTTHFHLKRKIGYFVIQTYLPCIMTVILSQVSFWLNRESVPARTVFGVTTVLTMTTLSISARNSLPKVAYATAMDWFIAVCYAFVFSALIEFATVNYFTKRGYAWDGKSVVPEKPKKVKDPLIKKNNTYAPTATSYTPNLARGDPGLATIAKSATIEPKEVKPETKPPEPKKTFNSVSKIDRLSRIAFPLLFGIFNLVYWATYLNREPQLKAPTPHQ

[2] = molecular target: T2, Gamma-aminobutyric acid receptor subunit alpha-2 (Homo sapiens) (UniProt P47869); assay: Binding affinity to GABA-A alpha2 (unknown origin) assessed as increase in induced current relative to control
T2 sequence (whole entry): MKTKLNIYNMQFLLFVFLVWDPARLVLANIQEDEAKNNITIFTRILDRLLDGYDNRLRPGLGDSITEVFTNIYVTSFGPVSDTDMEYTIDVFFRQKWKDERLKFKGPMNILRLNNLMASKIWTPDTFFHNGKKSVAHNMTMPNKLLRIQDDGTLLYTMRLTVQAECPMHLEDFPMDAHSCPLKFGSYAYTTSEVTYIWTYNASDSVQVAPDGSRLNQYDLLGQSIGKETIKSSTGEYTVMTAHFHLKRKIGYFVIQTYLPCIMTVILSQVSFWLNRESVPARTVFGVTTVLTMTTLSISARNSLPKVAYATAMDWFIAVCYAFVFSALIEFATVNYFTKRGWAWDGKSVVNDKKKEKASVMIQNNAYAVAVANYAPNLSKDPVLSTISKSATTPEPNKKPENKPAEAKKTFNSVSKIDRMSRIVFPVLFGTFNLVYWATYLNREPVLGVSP

[3] = molecular target: T3, Gamma-aminobutyric acid receptor subunit alpha-3 (Homo sapiens) (UniProt P34903); assay: Binding affinity to GABA-A alpha3 (unknown origin) assessed as increase in induced current relative to control
T3 sequence (whole entry): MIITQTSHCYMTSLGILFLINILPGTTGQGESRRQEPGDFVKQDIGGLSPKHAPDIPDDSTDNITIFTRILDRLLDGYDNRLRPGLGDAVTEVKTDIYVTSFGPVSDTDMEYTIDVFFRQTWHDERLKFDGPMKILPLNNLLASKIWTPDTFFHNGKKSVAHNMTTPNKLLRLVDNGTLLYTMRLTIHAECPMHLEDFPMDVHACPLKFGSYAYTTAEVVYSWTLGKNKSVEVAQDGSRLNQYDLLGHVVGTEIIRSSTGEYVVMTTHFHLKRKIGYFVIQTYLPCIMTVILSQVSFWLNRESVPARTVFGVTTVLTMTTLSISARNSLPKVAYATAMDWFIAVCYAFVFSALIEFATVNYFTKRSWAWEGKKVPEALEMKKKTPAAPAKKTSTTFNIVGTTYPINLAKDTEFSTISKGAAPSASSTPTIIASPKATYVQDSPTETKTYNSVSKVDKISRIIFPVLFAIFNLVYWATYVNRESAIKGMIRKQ

[4] = molecular target: T4, Gamma-aminobutyric acid receptor subunit alpha-5 (Homo sapiens) (UniProt P31644); assay: Binding affinity to GABA-A alpha5 (unknown origin) assessed as increase in induced current relative to control
T4 sequence (whole entry): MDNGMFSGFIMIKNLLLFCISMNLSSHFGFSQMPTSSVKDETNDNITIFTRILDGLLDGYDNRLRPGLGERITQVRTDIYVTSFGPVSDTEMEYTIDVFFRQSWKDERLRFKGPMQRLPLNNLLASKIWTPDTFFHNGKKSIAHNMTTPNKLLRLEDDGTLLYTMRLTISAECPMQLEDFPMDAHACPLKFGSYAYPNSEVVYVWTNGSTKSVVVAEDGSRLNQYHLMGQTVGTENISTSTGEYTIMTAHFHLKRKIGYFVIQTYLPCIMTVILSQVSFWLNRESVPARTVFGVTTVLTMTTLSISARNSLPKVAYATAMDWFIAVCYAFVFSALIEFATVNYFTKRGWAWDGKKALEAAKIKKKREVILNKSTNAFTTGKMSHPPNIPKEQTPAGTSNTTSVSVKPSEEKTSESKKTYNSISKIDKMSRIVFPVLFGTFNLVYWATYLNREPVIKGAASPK

[5] = molecular target: T1, Gamma-aminobutyric acid receptor subunit alpha-1 (Homo sapiens); assay: Negative allosteric modulation of GABA-A alpha1 (unknown origin) assessed as reduction in DMCM induced current relative to control
[6] = molecular target: T5, Gamma-aminobutyric acid receptor subunit alpha-2 (Homo sapiens, UniProt P47869); assay: Binding affinity to GABA-A alpha2 (unknown origin)
T5 sequence (P47869 whole entry): T2 sequence (whole entry)

[7] = molecular target: T3, Gamma-aminobutyric acid receptor subunit alpha-3 (Homo sapiens); assay: Binding affinity to GABA-A alpha3 (unknown origin) assessed as reduction in DMCM induced current relative to control
[8] = molecular target: T6, Gamma-aminobutyric acid receptor subunit alpha-5 (Homo sapiens, UniProt P31644); assay: Binding affinity to GABA-A alpha5 (unknown origin)
T6 sequence (P31644 whole entry): T4 sequence (whole entry)

[9] = molecular target: T7, Gamma-aminobutyric acid receptor subunit alpha-1 (Homo sapiens, UniProt P14867); assay: Binding affinity to GABA-A alpha1 (unknown origin)
T7 sequence (P14867 whole entry): T1 sequence (whole entry)

[10] = molecular target: T4, Gamma-aminobutyric acid receptor subunit alpha-5 (Homo sapiens); assay: Binding affinity to GABA-A alpha5 (unknown origin) assessed as reduction in DMCM induced current relative to control
[11] = molecular target: T8, Gamma-aminobutyric acid receptor subunit alpha-3 (Homo sapiens, UniProt P34903); assay: Binding affinity to GABA-A alpha3 (unknown origin)
T8 sequence (P34903 whole entry): T3 sequence (whole entry)

[12] = molecular target: T2, Gamma-aminobutyric acid receptor subunit alpha-2 (Homo sapiens); assay: Binding affinity to GABA-A alpha2 (unknown origin) assessed as reduction in DMCM induced current relative to control
[13] = molecular target: GABA-A receptor; alpha-5/beta-3/gamma-2 (Homo sapiens) (UniProt P18507+P28472+P31644); assay: Negative allosteric modulation of GABAA alpha5beta3gamma2 (unknown origin) expressed in Xenopus laevis oocytes assessed as inhibition of GABA-induced current response at -60 mV holding potential by two electrode voltage clamp method relative to control; format: cell-based; design: scale not given: the % may be the effect or the level left
[14] = organism: Homo sapiens; assay: Selectivity ratio of Ki for binding affinity to GABAA alpha2beta3gamma2 (unknown origin) to Ki for binding affinity to GABAA alpha5beta3gamma2 (unknown origin)
[15] = organism: Homo sapiens; assay: Selectivity ratio of Ki for binding affinity to GABAA alpha3beta3gamma2 (unknown origin) to Ki for binding affinity to GABAA alpha5beta3gamma2 (unknown origin)
[16] = organism: Homo sapiens; assay: Selectivity ratio of Ki for binding affinity to GABAA alpha1beta3gamma2 (unknown origin) to Ki for binding affinity to GABAA alpha5beta3gamma2 (unknown origin)

Row | Structure (SMILES) | fold change (FC) [1] | fold change (FC) [2] | fold change (FC) [3] | fold change (FC) [4] | Ki [6] [nM] | Ki [8] [nM] | Ki [9] [nM] | Ki [11] [nM] | other results
1 | C#Cc1ccc2c(c1)C(c1ccccc1F)=N[C@@H](C)c1c(C(=O)OCC)ncn1-2 | 0.3 | 0.57 | 0.31 | 1.19 |  |  |  |  | 
2 | CC(C)(O)c1ccc2c(c1)ncn2-c1cccc(-c2cc(C#N)ccc2Cl)n1 | -0.1 | 0.27 | 0.47 | 0.05 |  |  |  |  | 
3 | C#Cc1ccc2c(c1)C(c1ccccn1)=NCc1c(C(=O)OCC)ncn1-2 | 0.27 | 0.52 | 0.36 | 0.23 |  |  |  |  | 
4 | Clc1ccc2c(c1)-c1ncnn1Cc1c(Cl)ncn1-2 |  |  |  |  | 24 | 2 | 15 | 14 | Efficacy [5]: -3%; Efficacy [7]: -11%; Efficacy [10]: -40%; Efficacy [12]: -9%
5 | C#Cc1ccc2c(c1)C(=O)N(C)Cc1c(C(=O)OCC)ncn1-2 |  |  |  |  |  |  |  |  | Activity [13]: 36%
6 | CCCNC(=O)c1nnc2c(-c3cc(OC)ccc3OC)cccc2c1N [AZD6280] |  |  |  |  |  | 1680 | 0.5 | 3.1 | 
7 | C#Cc1ccc2c(c1)C(c1ccccc1F)=N[C@H](C)c1c(C(=O)OCC)ncn1-2 | 0.25 | 0.19 | 0.18 | 1.19 |  |  |  |  | 
8 | C#Cc1ccc2c(c1)C(c1ccccc1F)=N[C@H](C)c1c(C(=O)NC3CC3)ncn1-2 | 1.22 |  |  | 1.23 | 789 | 79 | 542 | 480 | Ratio Ki [14]: 6 to 15; Ratio Ki [15]: 6 to 15; Ratio Ki [16]: 6 to 15
9 | C#Cc1ccc2c(c1)C(c1ccccn1)=NCc1c(C(=O)OC)ncn1-2 |  |  |  |  | 1000 |  |  | 1000 | Activity [1]: 25%; Activity [2]: 140%; Activity [3]: 129%; Activity [4]: 11%
10 | C#Cc1ccc2c(c1)C(c1ccccc1F)=N[C@H](C)c1c(C(=O)N(C)C)ncn1-2 | 0.65 |  |  | 1.46 | 30000 | 5000 | 55000 | 63000 | Ratio Ki [14]: 6 to 15; Ratio Ki [15]: 6 to 15; Ratio Ki [16]: 6 to 15
11 | COCc1ncn2c1CN(C)C(=O)c1cc(Cl)ccc1-2 |  |  |  |  | 180 | 6 | 362 | 328 | Efficacy [5]: 20%; Efficacy [7]: 45%; Activity [13]: 17%; Efficacy [10]: -20%; Efficacy [12]: 15%; Ratio Ki [14]: 30 to 60; Ratio Ki [15]: 30 to 60; Ratio Ki [16]: 30 to 60
12 | CCOC(=O)c1ncn2c1[C@@H]1CCCN1C(=O)c1cc(OC)ccc1-2 |  |  |  |  | 17 to 360 |  | 17 to 360 | 17 to 360 | Ratio Ki [14]: 50 to 100; Ratio Ki [15]: 50 to 100; Ratio Ki [16]: 50 to 100
13 | Cc1onc(-c2ccc(F)cc2)c1COc1ccc(C(=O)N2CCS(=O)(=O)CC2)cn1 [BASMISANIL] |  |  |  |  | 502 | 4.7 | 985 | 489 | Efficacy [5]: -4%; Efficacy [7]: -2%; Efficacy [10]: -39%; Efficacy [12]: -6%
14 | C#Cc1ccc2c(c1)C(c1ccccn1)=NCc1c(-c3cnco3)ncn1-2 | 0.35 | 0.66 | 0.77 |  |  |  |  |  | 
15 | C#Cc1ccc2c(c1)C(c1ccccc1F)=N[C@H](C)c1c(C(=O)NC)ncn1-2 | 0.11 | 0.5 | 0.2 | 2.48 | 360 | 55 | 850 | 660 | 
16 | c1ccc(-c2nnc3c4c(c(OCc5ccccn5)nn23)C2CCC4CC2)cc1 |  |  |  |  | 26 |  | 71 | 12 | 
17 | FC(F)c1ncn2c1Cn1ncnc1-c1cc(Br)ccc1-2 |  |  |  |  | 185 | 4.6 | 174 | 80 | Efficacy [5]: -3%; Efficacy [7]: 2%; Efficacy [10]: -35%; Efficacy [12]: -4%
